What was measured:
Test in all cases: relative viability (nuclei count vs DMSO), 5 days (fraction); higher = more cells survive
[1] = compound: CCN1CCN(c2ccc(Nc3cc(N(C)C(=O)Nc4c(Cl)c(OC)cc(OC)c4Cl)ncn3)cc2)CC1 [BGJ398]
Outline: (§1)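 MetaXpress counted nuclei in 4× images of lung cancer cell lines that had been fixed, permeabilised and Hoechst-stained in one step. Before that, cells in 1536-well plates were kept overnight at 37 °C, pinned with five √10-spaced library-drug doses on vehicle-anchored plates, and cultured 5 days without medium change. Viability takes treated-well nuclei over vehicle-well nuclei and uses the median across plates. Plates were accepted only at control CV below 25% and at least one doubling.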

[2] = compound: C1=CC2=NC=CN=C2C=C1/C=C/3\C(=O)NC(=O)S3
Outline: as §1

[3] = compound: CCN1CCN(c2ccc(Nc3cc(N(C)C(=O)Nc4c(Cl)c(OC)cc(OC)c4Cl)ncn3)cc2)CC1 [BGJ398] + CS(=O)(=O)N1CCN(Cc2cc3nc(-c4cccc5[nH]ncc45)nc(N4CCOCC4)c3s2)CC1 [Pictilisib] (partner 1 µM)
Outline: (§2)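 Medians of duplicate plates are given as relative viability. That measure is the nuclei count in treated wells divided by the count in vehicle wells. Counts were taken on 4× images of lung cancer cell lines in 1536-well plates, 5 days after pin-tool dosing the day after seeding with one drug alone or a fixed anchor-drug dose plus five library-drug doses (not always all listed) in √10 steps.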

[4] = compound: CCN1CCN(c2ccc(Nc3cc(N(C)C(=O)Nc4c(Cl)c(OC)cc(OC)c4Cl)ncn3)cc2)CC1 [BGJ398] + COc1cc2c(Oc3ccc(NC(=O)C4(C(=O)Nc5ccc(F)cc5)CC4)cc3F)ccnc2cc1OCCCN1CCOCC1 [Foretinib] (partner 0.25 µM)
Outline: as §2

In the case of UMC-11, the relative viability ([1]; 0.01 µM) is reported as 0.955, the relative viability ([1]; 0.03162 µM) is reported as 1.05 and the relative viability ([1]; 0.1 µM) is reported as 1.05. The relative viability ([1]; 0.3162 µM) was 0.968, the relative viability ([1]; 1 µM) was 0.919 and the relative viability ([2]; 0.02 µM) was 0.978. It also gave a relative viability ([2]; 0.06325 µM) of 1, a relative viability ([2]; 0.2 µM) of 1.01 and a relative viability ([2]; 0.6325 µM) of 0.925. The relative viability ([2]; 2 µM) was 1.06, the relative viability ([3]; first compound 0.01 µM) was 0.839 and the relative viability ([3]; first compound 0.03162 µM) was 0.686. The relative viability ([3]; first compound 0.1 µM) was 0.897, the relative viability ([3]; first compound 0.3162 µM) was 0.73 and the relative viability ([3]; first compound 1 µM) was 0.707. The relative viability ([4]; first compound 0.01 µM) was 0.962, the relative viability ([4]; first compound 0.03162 µM) was 1 and the relative viability ([4]; first compound 0.1 µM) was 1.14. It also gave a relative viability ([4]; first compound 0.3162 µM) of 0.977 and a relative viability ([4]; first compound 1 µM) of 0.924.
